Test results from paper PMC7757739 (Chemical research in toxicology, 2019).
Values joined by “and” are separate entries in the source; they are usually repeats but may differ in a detail not shown here. Equal values may be shown once. Read-outs that look alike come from different tables or passages of the source. One block for each compound: values may come before it.

How the values were obtained:
human AhR = molecular target: T1, human AhR (Homo sapiens, UniProt P35869); assay: AhR-responsive luciferase reporter gene induction in recombinant human hepatoma; details: for AhR-dependent reporter gene activity (efficacy), in words: Figure 3; for increased potency compared to tryptanthrin (3) / potency relative to TCDD, in words: 6h
T1 sequence (P35869 11-848): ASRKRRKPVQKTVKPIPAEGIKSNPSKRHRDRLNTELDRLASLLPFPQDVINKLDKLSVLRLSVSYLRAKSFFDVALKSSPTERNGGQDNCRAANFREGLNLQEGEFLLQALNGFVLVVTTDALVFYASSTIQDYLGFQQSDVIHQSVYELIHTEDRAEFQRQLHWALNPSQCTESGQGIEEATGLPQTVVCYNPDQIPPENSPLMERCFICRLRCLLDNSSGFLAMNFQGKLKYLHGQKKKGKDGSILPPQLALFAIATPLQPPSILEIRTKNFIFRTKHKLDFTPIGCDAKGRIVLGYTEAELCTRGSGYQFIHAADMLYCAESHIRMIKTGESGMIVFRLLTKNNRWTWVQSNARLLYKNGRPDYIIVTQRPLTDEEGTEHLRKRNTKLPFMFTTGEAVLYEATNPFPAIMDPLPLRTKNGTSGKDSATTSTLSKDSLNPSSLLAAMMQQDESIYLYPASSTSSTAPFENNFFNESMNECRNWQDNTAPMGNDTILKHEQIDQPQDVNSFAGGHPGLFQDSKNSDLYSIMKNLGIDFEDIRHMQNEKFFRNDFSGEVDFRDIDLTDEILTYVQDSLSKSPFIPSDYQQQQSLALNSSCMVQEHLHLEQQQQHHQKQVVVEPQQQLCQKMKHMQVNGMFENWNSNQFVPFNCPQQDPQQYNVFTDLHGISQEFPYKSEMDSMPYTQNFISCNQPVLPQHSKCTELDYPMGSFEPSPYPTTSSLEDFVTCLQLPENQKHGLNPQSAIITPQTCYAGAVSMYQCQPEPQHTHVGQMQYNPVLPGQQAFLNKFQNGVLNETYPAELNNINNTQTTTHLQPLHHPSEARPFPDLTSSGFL

mouse AhR [1] = molecular target: T2, mouse AhR (Mus musculus, UniProt P30561); details: mouse H1L7.5c3 cells
AhR [2] = details: mice or mouse cells; ref [34], [35], [76]; cited from earlier work
AhR [3] = molecular target: AhR (Homo sapiens, UniProt P35869); type: cell-based; details: HG2L7.5c1 cells, 6h, Figure 4
mouse AhR [4] = molecular target: T2, mouse AhR; assay: cell-based
AhR [5] = details: ref [37]; cited from earlier work

T2 sequence (P30561 10-805 limits assumed): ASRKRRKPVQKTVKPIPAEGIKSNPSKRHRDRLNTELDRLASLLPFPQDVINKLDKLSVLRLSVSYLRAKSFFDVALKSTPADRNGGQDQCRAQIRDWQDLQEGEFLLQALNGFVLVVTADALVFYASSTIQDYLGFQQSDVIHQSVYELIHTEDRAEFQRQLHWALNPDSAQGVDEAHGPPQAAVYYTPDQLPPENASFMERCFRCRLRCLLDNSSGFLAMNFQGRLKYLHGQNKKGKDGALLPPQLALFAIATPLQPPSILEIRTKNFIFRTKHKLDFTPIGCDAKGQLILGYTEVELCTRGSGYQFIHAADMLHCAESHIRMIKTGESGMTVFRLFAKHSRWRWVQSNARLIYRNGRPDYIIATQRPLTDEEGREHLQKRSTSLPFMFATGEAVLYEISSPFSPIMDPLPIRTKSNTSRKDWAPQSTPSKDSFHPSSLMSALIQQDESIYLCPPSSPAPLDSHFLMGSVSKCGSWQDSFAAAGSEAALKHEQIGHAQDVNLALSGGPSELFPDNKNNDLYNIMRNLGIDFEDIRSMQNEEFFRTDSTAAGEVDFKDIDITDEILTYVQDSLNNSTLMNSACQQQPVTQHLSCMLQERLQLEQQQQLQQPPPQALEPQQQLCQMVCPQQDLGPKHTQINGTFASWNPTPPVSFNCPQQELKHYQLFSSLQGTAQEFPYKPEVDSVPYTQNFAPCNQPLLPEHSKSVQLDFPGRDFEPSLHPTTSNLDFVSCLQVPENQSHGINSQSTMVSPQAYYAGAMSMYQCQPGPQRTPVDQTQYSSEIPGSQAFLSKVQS
T2 sequence (P11499 whole entry partner): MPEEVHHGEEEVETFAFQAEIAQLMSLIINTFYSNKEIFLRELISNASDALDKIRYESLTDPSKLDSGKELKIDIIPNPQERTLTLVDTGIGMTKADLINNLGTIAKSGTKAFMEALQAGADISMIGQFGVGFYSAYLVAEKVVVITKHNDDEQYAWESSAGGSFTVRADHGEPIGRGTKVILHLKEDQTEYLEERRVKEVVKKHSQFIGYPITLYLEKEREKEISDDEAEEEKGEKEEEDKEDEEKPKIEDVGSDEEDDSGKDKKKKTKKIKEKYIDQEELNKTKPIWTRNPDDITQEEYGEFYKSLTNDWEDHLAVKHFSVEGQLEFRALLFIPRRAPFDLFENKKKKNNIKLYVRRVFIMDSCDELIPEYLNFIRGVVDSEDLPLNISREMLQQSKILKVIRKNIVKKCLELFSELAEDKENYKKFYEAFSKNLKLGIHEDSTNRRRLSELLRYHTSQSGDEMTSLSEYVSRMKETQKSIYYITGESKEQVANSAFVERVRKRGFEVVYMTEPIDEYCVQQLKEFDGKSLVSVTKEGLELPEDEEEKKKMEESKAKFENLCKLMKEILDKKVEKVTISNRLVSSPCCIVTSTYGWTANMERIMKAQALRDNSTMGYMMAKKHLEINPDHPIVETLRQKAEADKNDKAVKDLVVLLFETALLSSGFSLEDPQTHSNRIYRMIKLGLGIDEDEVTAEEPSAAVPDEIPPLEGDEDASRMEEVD
T2 sequence (O08915 whole entry partner): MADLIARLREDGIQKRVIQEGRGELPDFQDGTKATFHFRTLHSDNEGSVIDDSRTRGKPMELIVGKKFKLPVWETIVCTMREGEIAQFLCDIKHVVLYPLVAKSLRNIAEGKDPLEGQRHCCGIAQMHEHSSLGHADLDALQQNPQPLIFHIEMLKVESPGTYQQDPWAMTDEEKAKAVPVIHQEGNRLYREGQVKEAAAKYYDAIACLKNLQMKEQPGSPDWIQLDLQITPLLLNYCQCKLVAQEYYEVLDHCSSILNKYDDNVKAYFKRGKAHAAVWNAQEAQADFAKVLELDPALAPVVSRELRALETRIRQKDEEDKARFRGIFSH

AhR-dependent reporter gene activity (efficacy), in words (human AhR; human cells): completely inactive
SMILES: O=C(O)Cc1ccc2c(c1)-n1c(nc3cc(CC(=O)O)ccc3c1=O)C2=O [3g, 3,9-dicarboxymethylotryptanthrin]

SMILES: O=C1c2ccc(Br)cc2-n2c1nc1cc(Br)ccc1c2=O [3f, 3,9-dibromotryptanthrin]
times less potent than TCDD (mouse AhR [1]): 4,000 fold and ~ 4,000 fold
increased potency compared to tryptanthrin (3) (human AhR; human HG2L7.5c1 cells): 350 fold
potency relative to TCDD, in words (human AhR; human HG2L7.5c1 cells): comparable to the potency of TCDD
potency relative to TCDD, in words (human AhR; human HG2L7.5c1 cells, listed as 3,9-dibromotryptanthrin): equipotent
EC50 (human AhR; human HG2L7.5c1 cells, evaluated at 6h): 0.5 nM
AhR-dependent reporter gene activity (efficacy), in words (human AhR; human cells): induced maximal AhR-dependent reporter gene activity

SMILES: O=C1Nc2ccccc2/C1=C1/Nc2ccccc2C1=O [compound 2, Indirubin]
less potent than TCDD (AhR [2]): ~ 100

SMILES: O=C1c2ccccc2-n2c1nc1cc(Br)ccc1c2=O [3h, 3-bromotryptanthrin]
times less potent than TCDD (mouse AhR [1]): 10,000 fold
times less potent than TCDD (mouse AhR [1]; listed as 3-bromotryptanthrin): > 10,000 fold
times more potent than TCDD (human AhR; human HG2L7.5c1 cells): 10 fold
increased potency compared to tryptanthrin (3) (human AhR; human HG2L7.5c1 cells): 3,000 fold
AhR-dependent reporter gene activity (efficacy), in words (human AhR; human cells): comparable to that produced by a maximally inducing concentration of TCDD

SMILES: O=C1Nc2cc(Br)ccc2/C1=C1/Nc2cc(Br)ccc2C1=O [2f, 6,6’-dibromoindirubin]
potency relative to TCDD, in words (human AhR; human HG2L7.5c1 cells): comparable to or greater than TCDD

SMILES: O=C1Nc2ccc(Cl)cc2C1=C1Nc2ccc(Cl)cc2C1=O [2b, 5,5’-dichloroindirubin]
potency relative to TCDD, in words (human AhR; human HG2L7.5c1 cells): comparable to or greater than TCDD

SMILES: CC(C)n1cnc2c(NCCc3ccc(O)cc3)nc(-c3csc4ccccc34)nc21 [StemRegenin1]
inhibition of TCDD-dependent induction of luciferase reporter gene expression (AhR [3]): inhibit

SMILES: Clc1cc2c(cc1Cl)Oc1cc(Cl)c(Cl)cc1O2 [TCDD, 2,3,7,8-tetrachlorodibenzo-p-dioxin, reference compound]
EC50 (human AhR; EC50 for gene induction at 24h of incubation, human cells, 24h incubation): 0.3 nM
EC50 (mouse AhR [4]): 0.1 nM

SMILES: Cc1ccccc1N=Nc1ccc(NC(=O)c2ccnn2C)c(C)c1 [CH223191]
inhibition of TCDD-dependent induction of luciferase reporter gene expression (AhR [3]): inhibit
effect of antagonist on AhR activation by indirubin (AhR [5]): little effect
effect of antagonist on ability of TCDD to bind to and activate the AhR (AhR [5]): effectively inhibit

SMILES: O=C1c2ccccc2-n2c1nc1ccccc1c2=O [compound 3, Tryptanthrin]
EC50 (human AhR): 170 nM
EC50 (mouse AhR [4]): 810 nM
